Assay results published in patent US20260262643A1, “HERBICIDAL BENZOXAZINES” (FMC CORPORATION, priority 2022, published 2026).

Tested on: barnyardgrass
Test: Test A postemergence
Type: in vivo, Echinochloa crusgalli
Conditions: postemergence, 10 days; for Barnyardgrass plant response rating: 125 g ai/ha, 0 to 100 scale, 0 no effect, 100 complete control; for Plant response rating, Barnyardgrass: 500 g ai/ha, visual injury, 0 to 100 scale (0 no effect, 100 complete control)
Outline: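 Visual injury ratings on a 0–100 scale (100 = complete control) versus untreated controls, taken 10 days after treatment in greenhouse. Preemergence: directed soil spray onto seeded loam/sand. Postemergence: foliar application at one- to two-leaf stage, plants 2–10 cm. Formulation: non-phytotoxic solvent plus surfactant.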

Structure (SMILES)	Barnyardgrass plant response rating	Plant response rating, Barnyardgrass
CC(C)c1ncn(-c2cc(C(=O)N3C[C@H](C)Oc4c(Cl)cccc43)c3ccccc3c2)n1 [Compound 146]	20	20
Cc1cccc2c1O[C@@H](C)CN2C(=O)c1cccc(-n2cnc(C3COC3)n2)c1 [Compound 109, [(2S)-2,3-Dihydro-2,8-dimethyl-4H-1,4-benzoxazin-4-yl][3-[3-(3-oxetanyl)-1H-1,2,4-triazol-1-yl]phenyl]methanone]	50	90
CC(C)c1ncn(-c2cc3c(c(C(=O)N4C[C@H](C)Oc5c(Cl)cccc54)c2)OCC3)n1 [Compound 147]	10	70
C[C@H]1CN(C(=S)c2cccc(-n3cncn3)c2)c2cccc(Cl)c2O1 [Compound 139, [(2S)-8-Chloro-2,3-dihydro-2-methyl-4H-1,4-benzoxazin-4-yl][3-(1H-1,2,4-triazol-1-yl)phenyl]methanethione]	20	70
CC(C)c1ncn(-c2cc(C(=O)N3C[C@H](C)Oc4c(Cl)cccc43)c3ccccc3c2)n1 [Compound 145]	20	20
